Measurements published in publication PMC6332334, “3-H-[1,2]Dithiole as a New Anti-Trypanosoma cruzi Chemotype: Biological and Mechanism of Action Studies” (Molecules, 2015).

What was measured:
[1] = test system: J774.1 murine macrophages; assay: Unspecific in vitro cytotoxicity of mammalian cells (MTT); type: cell-based; settings: Mus musculus, 48 h exposure, read-out: IC50 against Macrophages
Method: To evaluate the anti-trypanosomal activity of the synthesized 3H-[1,2]dithioles we used T. cruzi, Tulahuen 2 strain (discrete typing unit, DTU, TcVI [18]) in the epimastigote form. […] To establish the selectivity of the compounds against the parasite, unspecific cytotoxicity against mammalian cells (J774.1 murine macrophages) was studied for the most relevant derivatives. The selectivity indexes (SI) were also determined (Table 1).
J774.1 murine macrophage cells (ATCC, Manassas, VA, USA) were grown in DMEM culture milieu containing 4 mM L-glutamine and supplemented with 10% heat-inactivated fetal calf serum. […] Afterwards, cells were exposed for 48 h to the compounds (25–400 μM) or vehicle for control (0.4% DMSO), and additional controls (cells in medium) were used in each test. Cell viability was then assessed by measuring the mitochondria-dependent reduction of MTT (3-(4,5-dimethylthiazol-2-yl)-2,5-diphenyltetrazolium bromide) to formazan. For this purpose, MTT in sterile PBS (0.2% glucose) pH 7.4 was added to the macrophages to achieve a final concentration of 0.1 mg/mL and the cells were incubated at 37 °C for 3 h. After removing the medium, formazan crystals were dissolved in 180 μL of DMSO and 20 μL of MTT buffer (0.1 M glycine, 0.1 M NaCl, 0.5 mM EDTA, pH 10.5) and the absorbance at 560 nm was measured. The IC50 was defined as the drug concentration at which 50% of the cells were viable, relative to the control (no drug added), and was determined by analysis using OriginLab8.5® sigmoidal regression (% of viable cells vs. logarithm of the compound concentration). Samples were performed in triplicate.

[2] = test system: membrane sterol biosynthesis in epimastigotes of Y strain of T. cruzi; assay: Inhibition of membrane sterol biosynthesis (qualitative TLC); type: cell-based, Trypanosoma cruzi; settings: compounds at their IC50, 72 h, 28 °C, compared to control
Method: To do so, we analyzed the accumulation or depletion of some intermediates or final products of this biochemical pathway. Qualitative analyses were performed by thin layer chromatography (TLC).
The parasites, epimastigotes of Y strain of T. cruzi (DTU Tc II), were grown in 6 mL of BHT milieu in culture bottles. […] A negative control was performed with parasites in the absence of compounds. […] The extraction of membrane sterols was performed on completion of the incubation. For this purpose, the content of the culture bottle was centrifuged at 3000 rpm for 10 min, the supernatant was discarded and the pellet was suspended in sodium phosphate buffer solution (6 mL, 0.05 M, pH 7.4). Then it was centrifuged again at 3000 rpm for 10 min and the supernatant was discarded. The resulting pellet was resuspended in a chloroform/methanol (2:1) mixture (5 mL) and the suspension was kept at 4 °C for 12 h. Then, a saturated NaCl solution (5 mL) was added and the mixture extracted once with chloroform (3 mL) and once with hexane (3 mL) with care to avoid taking any aqueous phase. The extracted volume was applied to a silica gel TLC plate. Chromatography was performed eluting with hexane, two runs to identify squalene, and once with hexane/EtOAc (8:2) for ergosterol. […] Also, controls and commercial samples of ergosterol, lanosterol, cholesterol and squalene were run on the TLC plate. […]

cruzipain = target: T1, cruzipain (Trypanosoma cruzi, UniProt P25779); assay: Inhibition of T. cruzi cruzipain (Z-Phe-Arg-AMC fluorogenic substrate); type: biochemical; settings: percentage of enzymatic inhibition at 100 μM; read-out: Cruzipain % Inhib100
T1 construct: endogenous in cells; host or cells: T. cruzi epimastigotes, Tulahuen 2 strain
Method: Initially, we tested the dithioles as inhibitors of the protease cruzipain from T. cruzi at a concentration of 100 μM.
Cruzipain was purified to homogeneity from epimastigotes of the Tulahuen 2 strain by ConA-Sepharose affinity chromatography, as previously described. Cruzipain (2.5 μM ε = 58,285 M^−1·cm^−1) was incubated in 50 mM acetate buffer pH 5.5 with 50 mM DTT and 100 μM inhibitor was added, shaking the solution for 15 min at 27 °C. The derivatives were added diluted in DMSO, and the controls contained the same solvent concentration. The concentration of DMSO never exceeded 1% in the reaction medium. E-64 was used as a positive control of inhibition. Then, the fluorogenic substrate Z-Phe-Arg-AMC (100 μM) was added and the fluorescence was measured during 10 min at intervals of 3 s (excitation at 350 nm and emission at 460 nm) using a Varioskan Flash Spectrophotometer. From the slope of the negative control, we calculated the total (100%) enzyme activity, while the slopes obtained in the presence of the compounds yielded the percentage of remaining enzyme activity. The percentage of enzyme inhibition was determined as […]. The experiments were done in duplicate.

T1 sequence (P25779 123-467): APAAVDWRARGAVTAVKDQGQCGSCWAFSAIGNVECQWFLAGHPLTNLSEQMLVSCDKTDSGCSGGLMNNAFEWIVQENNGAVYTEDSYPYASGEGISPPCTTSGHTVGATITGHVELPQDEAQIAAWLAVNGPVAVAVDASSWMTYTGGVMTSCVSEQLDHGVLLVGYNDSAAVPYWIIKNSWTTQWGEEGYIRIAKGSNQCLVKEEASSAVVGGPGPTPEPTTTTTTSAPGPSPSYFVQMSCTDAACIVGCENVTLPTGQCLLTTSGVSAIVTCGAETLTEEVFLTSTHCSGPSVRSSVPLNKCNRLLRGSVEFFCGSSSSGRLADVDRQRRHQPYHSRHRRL

CC(=O)COc1ccc(C2=C/C(=C(\SCC(C)=O)C(C)=O)SS2)cc1 [Derivative 2]
IC50 [1]: 24 ± 1 µM
Changes in membrane sterols and intermediates (squalene, ergosterol) [2]: accumulate squalene and deplete ergosterol
inhibition at 100 µM (cruzipain): 91.3 ± 2.8%
